Measured values from paper PMC7987348, “Structural basis for human TRPC5 channel inhibition by two distinct inhibitors” (eLife, 2021).
Read-outs that look alike come from different tables or passages of the source.

Assays:
TRPC5 = tested on: TRPC5; parameters: method as in Richter et al., 2014; Zhou et al., 2017; Zhu et al., 2015; details: ref Richter et al., 2014; Zhou et al., 2017; Zhu et al., 2015; read-out: IC50 for inhibition of TRPC5; cited from earlier work
hTRPC5_1-764 = biological target: T1, hTRPC5_1-764 (Homo sapiens, UniProt Q9UL62); assay: FLIPR calcium assay, C-terminally truncated construct hTRPC5_1-764; details: 14 mM extracellular calcium; AD293 cells
T1 sequence (Q9UL62 1-764): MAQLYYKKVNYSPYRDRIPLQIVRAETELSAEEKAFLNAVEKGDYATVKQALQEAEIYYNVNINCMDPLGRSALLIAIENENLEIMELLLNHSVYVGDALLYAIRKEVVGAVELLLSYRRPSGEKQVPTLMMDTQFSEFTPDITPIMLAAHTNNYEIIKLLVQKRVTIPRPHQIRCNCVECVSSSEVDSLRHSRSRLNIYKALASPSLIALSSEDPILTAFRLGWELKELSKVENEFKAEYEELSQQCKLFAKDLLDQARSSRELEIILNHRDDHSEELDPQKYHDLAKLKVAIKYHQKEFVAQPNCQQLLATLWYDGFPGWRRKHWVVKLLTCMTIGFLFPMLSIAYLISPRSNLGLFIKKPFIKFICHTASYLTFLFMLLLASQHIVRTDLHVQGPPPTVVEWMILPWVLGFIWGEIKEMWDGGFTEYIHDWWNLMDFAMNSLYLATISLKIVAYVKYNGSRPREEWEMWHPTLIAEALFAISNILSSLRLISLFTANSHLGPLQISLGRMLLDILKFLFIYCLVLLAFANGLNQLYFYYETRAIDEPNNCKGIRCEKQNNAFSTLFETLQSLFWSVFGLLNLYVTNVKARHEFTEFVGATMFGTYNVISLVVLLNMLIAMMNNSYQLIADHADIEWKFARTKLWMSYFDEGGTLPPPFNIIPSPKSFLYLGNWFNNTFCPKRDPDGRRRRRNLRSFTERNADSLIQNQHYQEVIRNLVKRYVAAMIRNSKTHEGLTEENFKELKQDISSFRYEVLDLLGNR

TRPC3/6 = tested on: TRPC3/6; parameters: method as in Richter et al., 2014; details: ref Richter et al., 2014; cited from earlier work
hTRPC5 N443L = biological target: T2, hTRPC5 N443L (Homo sapiens, UniProt Q9UL62, N443L); assay: FLIPR calcium assay, hTRPC5 mutant N443L; type: cell-based
T2 construct: We use full-length nontagged hTRPC5 construct for FLIPR assay unless indicated otherwise; expressed in transfected cells; host or cells: AD293
T2 sequence (Q9UL62 1-973 N443L): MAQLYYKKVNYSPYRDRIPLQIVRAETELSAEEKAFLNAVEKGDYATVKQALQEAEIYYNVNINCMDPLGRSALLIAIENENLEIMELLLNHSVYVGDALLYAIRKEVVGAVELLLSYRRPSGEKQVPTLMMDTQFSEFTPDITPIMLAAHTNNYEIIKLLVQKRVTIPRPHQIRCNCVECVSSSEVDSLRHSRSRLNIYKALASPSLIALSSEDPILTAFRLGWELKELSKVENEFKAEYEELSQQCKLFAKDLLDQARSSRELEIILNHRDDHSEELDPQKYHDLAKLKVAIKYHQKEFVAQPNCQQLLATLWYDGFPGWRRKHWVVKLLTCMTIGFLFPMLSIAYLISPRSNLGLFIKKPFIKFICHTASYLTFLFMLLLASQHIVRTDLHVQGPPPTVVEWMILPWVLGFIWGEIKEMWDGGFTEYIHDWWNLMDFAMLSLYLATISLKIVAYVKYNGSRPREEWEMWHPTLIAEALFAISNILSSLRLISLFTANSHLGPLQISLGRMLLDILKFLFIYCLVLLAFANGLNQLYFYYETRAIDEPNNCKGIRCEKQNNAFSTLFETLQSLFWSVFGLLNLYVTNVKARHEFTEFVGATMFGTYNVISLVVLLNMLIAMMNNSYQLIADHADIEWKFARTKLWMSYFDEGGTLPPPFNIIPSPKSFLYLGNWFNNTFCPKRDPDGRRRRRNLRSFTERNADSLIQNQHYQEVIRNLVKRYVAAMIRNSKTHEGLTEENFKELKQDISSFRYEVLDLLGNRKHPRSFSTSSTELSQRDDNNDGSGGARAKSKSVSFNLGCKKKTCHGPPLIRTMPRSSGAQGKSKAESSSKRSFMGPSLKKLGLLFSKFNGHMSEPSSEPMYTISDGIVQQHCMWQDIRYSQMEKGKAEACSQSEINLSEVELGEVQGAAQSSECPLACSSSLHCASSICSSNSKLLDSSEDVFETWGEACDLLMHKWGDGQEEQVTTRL
Method: […]. Then the suspended cell culture was further diluted for 5.4- to 7-fold with culture medium and seeded onto black well, clear bottom, poly-D-lysine-coated 96-well plate (Costar) and cultured overnight. We use full-length nontagged hTRPC5 construct for FLIPR assay unless indicated otherwise. hTRPC5 plasmids were transfected into AD293 cells (60-80% confluence) with PEI. 30–40 hr post-transfection, culture medium was discarded and cells were incubated with 50 μl per well of 4 μM Rhod-2/AM (AAT Bioquest) in TARODES’s buffer (10 mM HEPES, 150 mM NaCl, 4 mM KCl, 2 mM MgCl2, 2 mM CaCl2, 11 mM glucose, pH 7.4) supplemented with 0.02% Pluronic F-127 (Sigma) for 5 min in dark at room temperature. Then dye was removed and replaced with 50 μl of TARODE’s buffer per well. The application of compounds and detection of intracellular calcium elevation were performed using FLIPR-TETRA (Molecular Devices) at room temperature (25–27°C). Fluorescence signals were read with excitation/emission at 510–545/565–625 nm.
[…]. Then fluorescence was measured for 300 s.
Buffer A contains 2× concentration of working concentration of inhibitor. […]. for control-Min, both buffer A and buffer B were replaced by TARODE’s buffer.
[…]; the average of fluorescence value of last 20 time points was considered as the ‘end fluorescence’. The value of ‘end fluorescence’ minus ‘start fluorescence’ was considered as ‘signal value’ for each well. […].
Three independent experiments were performed on different days (biological replicates), with each experiment containing three replicates (technique replicates).

SMILES: Clc1ccc(Cn2c(CN3CCCC3)nc3ccccc32)cc1 [CMZ, clemizole]
- IC50 (TRPC5): 1 to 1.3 µM
- inhibition of hTRPC5_1-764 (hTRPC5_1-764): can be inhibited
- fold more potent against TRPC5 than TRPC3/6 (TRPC3/6): 10 fold
- Hill slope (hTRPC5 N443L; CMZ): −2.42
- IC50 (hTRPC5 N443L; CMZ, 14 mM extracellular calcium, read-out: IC50): 10.4 µM
- IC50 (hTRPC5 N443L; CMZ, log of IC50 in μM, logIC50 ± SEM, n = 3, read-out: LogIC50 (converted)): 10.5 µM
- remaining activity at 0.400391 µM (hTRPC5 N443L; read-out: normalized RFU (% WT), Clemizole 0.400391 μM, 14 mM Ca2+, each column one independent experiment): 89.5%
- remaining activity at 0.800781 µM (hTRPC5 N443L; read-out: normalized RFU (% WT), Clemizole 0.800781 μM, 14 mM Ca2+, each column one independent experiment): 64.6%
- remaining activity at 3.20312 µM (hTRPC5 N443L; read-out: normalized RFU (% WT), Clemizole 3.20312 μM, 14 mM Ca2+, each column one independent experiment): 56.3%
- remaining activity at 6.40625 µM (hTRPC5 N443L; read-out: normalized RFU (% WT), Clemizole 6.40625 μM, 14 mM Ca2+, each column one independent experiment): 52.8%
